ChEMBL document CHEMBL1128130, “Hydroxamate inhibitors of human gelatinase B (92 kDa)” (Bioorg Med Chem Lett, 1995)

Columns and labels:
Interstitial collagenase = biological target: T1, Interstitial collagenase (Homo sapiens, UniProt P03956)
T1 sequence (P03956 whole entry): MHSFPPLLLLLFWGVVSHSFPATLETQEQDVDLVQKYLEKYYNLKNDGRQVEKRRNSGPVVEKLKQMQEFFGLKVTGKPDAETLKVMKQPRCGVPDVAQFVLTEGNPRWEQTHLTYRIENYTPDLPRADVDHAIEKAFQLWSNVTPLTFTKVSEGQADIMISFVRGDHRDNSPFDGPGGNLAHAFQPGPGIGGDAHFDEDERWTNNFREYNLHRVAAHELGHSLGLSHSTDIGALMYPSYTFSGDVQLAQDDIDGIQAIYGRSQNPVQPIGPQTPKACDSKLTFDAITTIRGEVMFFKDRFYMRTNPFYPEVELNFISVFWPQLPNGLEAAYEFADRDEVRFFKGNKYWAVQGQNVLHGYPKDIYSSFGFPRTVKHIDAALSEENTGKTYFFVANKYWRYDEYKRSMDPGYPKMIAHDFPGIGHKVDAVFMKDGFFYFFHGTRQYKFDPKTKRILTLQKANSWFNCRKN
Description: Inhibition of human fibroblast collagenase, matrix metalloprotease-1

[1] = biological target: Matrix metalloproteinase-9 (Homo sapiens, UniProt P14780)
Description: Inhibition of human Matrix metalloprotease-9

Neutrophil collagenase = Neutrophil collagenase (Homo sapiens, UniProt P22894)
Description: Inhibition of human Matrix metalloprotease-8

Stromelysin-1 = Stromelysin-1 (Homo sapiens, UniProt P08254)
Stromelysin-1, sequence (P08254 whole entry): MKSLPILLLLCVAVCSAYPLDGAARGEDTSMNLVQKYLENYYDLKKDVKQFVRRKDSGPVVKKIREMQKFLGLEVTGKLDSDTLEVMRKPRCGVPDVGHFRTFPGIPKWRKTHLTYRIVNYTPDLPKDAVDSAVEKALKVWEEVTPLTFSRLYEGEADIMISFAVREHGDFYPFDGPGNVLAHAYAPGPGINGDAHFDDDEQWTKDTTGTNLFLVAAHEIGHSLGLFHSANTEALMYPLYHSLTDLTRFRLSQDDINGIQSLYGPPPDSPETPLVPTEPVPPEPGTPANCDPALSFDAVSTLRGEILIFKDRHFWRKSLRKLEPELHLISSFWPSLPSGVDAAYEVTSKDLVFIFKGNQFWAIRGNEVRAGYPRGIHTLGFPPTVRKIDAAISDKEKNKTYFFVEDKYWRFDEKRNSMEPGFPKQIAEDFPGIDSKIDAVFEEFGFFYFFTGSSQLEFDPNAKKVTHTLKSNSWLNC
Description: Inhibition of human fibroblast stromelysin, matrix metalloprotease-3

Neutrophil collagenase, sequence (P22894 whole entry): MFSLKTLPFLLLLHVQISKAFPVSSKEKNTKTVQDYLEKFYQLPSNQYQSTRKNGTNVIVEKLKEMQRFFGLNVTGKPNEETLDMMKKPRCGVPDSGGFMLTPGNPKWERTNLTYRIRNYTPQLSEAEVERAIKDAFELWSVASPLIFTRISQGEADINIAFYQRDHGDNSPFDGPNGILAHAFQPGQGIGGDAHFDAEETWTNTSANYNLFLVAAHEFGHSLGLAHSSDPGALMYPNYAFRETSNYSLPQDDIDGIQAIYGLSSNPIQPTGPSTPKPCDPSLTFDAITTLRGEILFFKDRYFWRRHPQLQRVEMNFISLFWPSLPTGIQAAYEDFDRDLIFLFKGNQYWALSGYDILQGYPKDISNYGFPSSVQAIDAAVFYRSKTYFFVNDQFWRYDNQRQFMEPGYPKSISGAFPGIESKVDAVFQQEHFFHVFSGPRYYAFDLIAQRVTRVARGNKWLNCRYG
Matrix metalloproteinase-9, sequence (P14780 whole entry): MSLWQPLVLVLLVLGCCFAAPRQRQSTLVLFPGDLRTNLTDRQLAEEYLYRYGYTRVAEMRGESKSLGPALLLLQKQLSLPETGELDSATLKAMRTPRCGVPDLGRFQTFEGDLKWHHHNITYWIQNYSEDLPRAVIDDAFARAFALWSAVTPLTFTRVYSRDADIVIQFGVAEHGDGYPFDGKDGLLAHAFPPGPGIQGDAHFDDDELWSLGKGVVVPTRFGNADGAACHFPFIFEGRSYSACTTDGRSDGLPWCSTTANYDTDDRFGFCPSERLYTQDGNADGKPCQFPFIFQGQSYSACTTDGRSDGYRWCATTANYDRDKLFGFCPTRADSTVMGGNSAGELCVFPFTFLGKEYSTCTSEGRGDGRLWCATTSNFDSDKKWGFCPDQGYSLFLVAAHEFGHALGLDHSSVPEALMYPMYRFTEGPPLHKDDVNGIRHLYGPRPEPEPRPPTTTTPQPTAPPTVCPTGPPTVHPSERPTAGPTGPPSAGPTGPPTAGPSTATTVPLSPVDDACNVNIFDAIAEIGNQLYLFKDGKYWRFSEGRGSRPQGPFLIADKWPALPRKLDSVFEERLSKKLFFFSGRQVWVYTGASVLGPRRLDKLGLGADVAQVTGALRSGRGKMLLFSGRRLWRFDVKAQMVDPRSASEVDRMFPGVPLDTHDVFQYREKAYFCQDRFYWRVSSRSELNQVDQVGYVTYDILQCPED

Compound	Ki (Interstitial collagenase) [nM]	Ki [1] [nM]	Ki (Neutrophil collagenase) [nM]	Ki (Stromelysin-1) [nM]
CNC(=O)[C@H](Cc1c[nH]c2ccccc12)NC(=O)[C@H](C)CC(=O)NO	8500	500	4200	40000
CNC(=O)CNC(=O)[C@H](CCCCOCc1ccccc1)CC(=O)NO	> 100	5600	170	3500
CNC(=O)[C@H](Cc1ccccc1)NC(=O)[C@@H](CC(=O)NO)CC(C)C		1.4		
CC[C@H](CC(=O)NO)C(=O)N[C@@H](Cc1c[nH]c2ccccc12)C(=O)NC	180	20	100	2700
CNC(=O)[C@@H](NC(=O)[C@H](CCCCOCc1ccccc1)CC(=O)NO)C(C)(C)C		11	4.7	39
CNC(=O)[C@H](Cc1ccccc1)NC(=O)[C@H](CCCCCOc1ccccc1)CC(=O)NO		0.31		
CCCCC[C@H](CC(=O)NO)C(=O)N[C@H](C(=O)N1CCCC1CO)C(C)C (some centres undefined)	300	330	190	1700
CNC(=O)[C@H](Cc1ccccc1)NC(=O)[C@H](CCCCOc1ccccc1)CC(=O)NO		1.2		
CNC(=O)[C@H](Cc1ccccc1)NC(=O)[C@H](CCCCOCc1ccccc1)CC(=O)NO		3.3		
CNC(=O)[C@H](Cc1ccccc1)NC(=O)[C@H](CCCCCCc1ccccc1)CC(=O)NO	8400	1.3	< 2	11
CNC(=O)[C@H](Cc1c[nH]c2ccccc12)NC(=O)[C@@H](CC(=O)NO)CC(C)C [ILOMASTAT]				46
CCCCCc1ccc(OCCCC[C@H](CC(=O)NO)C(=O)N[C@H](C(=O)NC)C(C)(C)C)cc1		3.8		
